Experimental data as given in patent publication US5783556A, “Formulated insulin-containing composition” (Genentech, Inc., priority 1996, dated 1998).

What was measured:
[1] = Mixing one volume of human insulin with an equal volume of IGF-I: pH, color and appearance; format: physicochemical
Excerpt: One volume of human insulin was mixed with an equal volume of IGF-I using the following procedure:
1) Draw air into syringe equal to the amount of human insulin for mixing. Insert the needle into the human insulin bottle and inject air. Withdraw the needle.
3) Turn the bottle and syringe upside down.
4) Make sure the tip of the needle is in the IGF-I, withdraw the correct dose of IGF-I into the syringe.
5) Before removing the needle from the bottle, check the syringe for air bubbles which reduce the amount of IGF-I in it. If bubbles are present, hold the syringe straight up and tap its sides until the bubbles float to the top. Push them out with the plunger and withdraw the correct dose.
6) Remove the needle from the bottle of IGF-I and insert it into the bottle of human insulin. Turn the bottle and syringe upside down. Hold the bottle and syringe firmly in one hand and shake gently (no shaking for regular human insulin). Make sure the tip of the needle is in the insulin, withdraw the dose of human insulin.

[2] = Acidic pH reversed-phase HPLC of centrifuged and filtered insulin, IGF-I and insulin/IGF-I mixtures; format: physicochemical
Description: Human insulin was gently inverted several times to mix the suspension. Approximately 1 mL of sample was withdrawn into an insulin syringe. The insulin was discharged into a centrifuge tube, then centrifuged at 3000 r.p.m. for 10 minutes. The centrifuge step was designed to remove human insulin suspension from solution. After centrifugation, the insulin sample was filtered through a 0.22 μm filter to further remove human insulin suspension. After filtration the solution was analyzed by using the acidic pH reversed-phase HPLC method described below: […]
solvent A: 0.1% trifluoroacetic acid solvent B: 0.1% trifluoroacetic acid in acetonitrile […]
column temperature: 50° C. […]
injection volume: 25 μg/injection
This solution was analyzed by the above HPLC method with no sample preparation step.
IGF-I was diluted to 1 mg/mL using IGF-I placebo. The diluted sample was analyzed by the above HPLC method.
Human insulin was mixed with IGF-I in an insulin syringe using the mixing method described above. Immediately after mixing, the mixture was injected into a centrifuge tube, then gently vortexed for 1-2 seconds. After vortexing, the mixture was centrifuged at 3000 r.p.m. for 10 minutes, then filtered through a 0.22 μm filter to remove human insulin suspension. The filtered sample was then analyzed by the acidic pH reversed-phase HPLC method described above.

[3] = test system: STZ diabetic rats; experiment: Plasma glucose after SC injection in STZ diabetic rats (Studies 1-3); format: in vivo, rat
Description: Forty 7-8 week-old male SD rats were received from Charles River Laboratories and one day later injected with STZ 75 mg/kg IP. Five days later rats were bled via a tail vein, serum was obtained, and glucose concentration measured. All animals with blood glucose <200 mg/dL were not considered diabetic and were removed from the study. […] The right jugular vein was then isolated through a small SC incision and cannulated using a 0.02 inch×0.037 inch beveled silicon rubber-tipped cannula. Cannulas were flushed and checked for patency using heparin (10 U/mL) before closing wounds using 4-0 silk suture thread. Cannulas were "heparin locked" using ~50 μl heparin (100 U/mL) just before the animals were placed on a heated pad for recovery. Rats were placed in their vivarium cage when ambulatory.
The cannulas were flushed daily with fresh heparin/saline to maintain patency. Two days after cannulation, Study 1 (see below) was performed and two days later, Study 2. […]
Plasma glucose concentrations were measured using a Chem 1A serum chemistry analyzer (Miles Laboratories, Tarrytown, N.Y.). Insulin in plasma was measured by rat-specific radioimmunoassay (RIA) (Linco Research Inc., St. Charles, Mo.). Plasma IGF-I was measured by RIA after acid-ethanol extraction of the samples. […]

[4] = test system: patients with IDDM; experiment: Four-week randomized placebo-controlled double-blind study of rhIGF-I plus insulin in IDDM: glycemic control and insulin usage; format: in vivo, human
Excerpt: Forty-three patients (22 males and 21 females) with IDDM, ages 8-17 years, were recruited at three university-based diabetes clinics. The eligibility criteria were as follows:
The study design included a 4-week lead-in period, a 4-week treatment period, and a 2-week wash-out period (FIG. 13). Throughout the study the patients continued to receive two injections of regular and NPH insulin daily. At study entry the patients were provided with detailed instructions on home blood glucose (BG) monitoring technique. They were instructed to test BG before breakfast, lunch, dinner, and the evening snack as well as any times of symptomatic hypoglycemia. The glucose values were automatically stored in the meter (One Touch II--Lifescan Inc., Milpitas, Calif.) and electronically transferred to a personal computer at the study site during each clinic visit. During the lead-in period the patients were counseled weekly on general diabetes care and dietary management (day -28 and -14 at the clinic, day -21 and -7 over the phone). During this period the patients were provided with specific goals of glycemic control and were instructed to call the study sites as often as needed for assistance with insulin adjustment.
(§1) At the end of the lead-in period the patients were randomized to administer either rhIGF-I or placebo as an additional injection immediately before their morning insulin injections. Patients were allocated using an adaptive randomization procedure that stratified based on Tanner stage and the glycosylated hemoglobin value on day -28 of the lead-in period. A seven-day window period was allowed between day -1 of the lead-in period and day 1 of the treatment period. The subjects were admitted to the hospital the afternoon preceding day 1 of treatment and received their usual insulin dose and diet. On day 1, an IV cannula was inserted into the distal forearm or antecubital fossa. A single dose of rhIGF-I (80 μg/kg) or placebo was administered SC, followed by a SC insulin injection and breakfast. The dosing of IGF-I in the morning was for safety reasons. On day 1, the a.m. regular insulin dose was reduced by 1/3in both groups as a precaution against the development of hypoglycemia. Blood samples were obtained for future assay every 15 minutes for the next 3 hours. The patients were encouraged to be active and exercise after the initial 3-hour sampling period. Discharge from the hospital occurred on day 3 or 4 of treatment. The patients were then contacted by phone on day 5 and seen as outpatients on days 7, 14, 21, and 28 of treatment and 14 days after the cessation of dosing. The patients were instructed on dietary and diabetes management at each follow-up appointment.
For the entire four-week treatment period, the rhIGF-I and placebo doses remained constant (80 μg/kg SC q a.m.). However, the insulin doses were adjusted in an attempt to achieve the following BG targets: fasting blood glucose (FBG) 80-120 mg/dl (4.4-6.7 mmol/L) for age greater than 12 years and 80-140 mg/dL (4.4-7.8 mmol/L) for age lower than 12 years; 80-180 mg/dL (4.4-10.0 mmol/L) at any other time. A physical exam was performed on day -28 of the lead-in period, on days 1, 7, 21 and 28 of the treatment period, and on day 14 of the wash-out period. The treatment period was followed by a two-week wash-out period, during which the patients remained on insulin therapy only and dose adjustments continued as necessary to meet the glycemic goals.
The primary indices of glycemic control were: 1) HbA1 was measured at day -28 of the lead-in, as well as at days 1 and 28 of the treatment; 2) the average of the four daily home glucose monitoring values over the last ten days of the lead-in period was compared to the last ten days of treatment. The glycosylated hemoglobin was assayed by affinity chromatography (SmithKline Beecham Clinical Laboratories). The reference range was 4.4-6.1%.
Patients with at least two weeks of post randomization data were included in the analysis. […]

[5] = Plasma total and free IGF-I levels in the IDDM clinical study; format: in vivo, human; settings: 2-4 hours after rhIGF-I injection
Excerpt: as §1, with “The patients were encouraged to be active and exercise after the initial 3-hour sampling period. Discharge from the hospital occurred on day 3 or 4 of treatment. The patients were then contacted by phone on day 5 and seen as outpatients on days 7, 14, 21, and 28 of treatment and 14 days after the cessation of dosing. The patients were instructed on dietary and diabetes management at each follow-up appointment.” left out
Plasma levels of GH, IGF-I, free IGF-I, IGF-II, IGFBP-1, IGFBP-2, and IGFBP-3 were measured. […] Total plasma IGF-I concentrations were determined by radioimmunoassay (RIA) following acid-ethanol extraction as described by Lieberman et al., supra. […]

[6] = test system: patients with IDDM; experiment: Safety assessments in the IDDM clinical study (hypoglycemia, laboratory profiles, body weight); format: in vivo, human
Description: The primary safety laboratory evaluations were serum biochemical and thyroid profiles, CBC, urinalysis, 24-hour urinary albumin excretion rate and creatinine clearance. Hypoglycemia was defined by a BG level equal to or lower than 50 mg/dL with or without symptomatology. This definition of hypoglycemia was used for purposes of statistical analysis.
Patients with at least two weeks of post randomization data were included in the analysis. […] The data are summarized by mean±SE for each group. Comparisons between the two groups were performed using the Wilcoxon rank sum test for continuous variables and Fisher's exact test for discrete data. All tests were two-tailed and a p-value less than or equal to 0.05 was considered statistically significant.

[7] = last 10 days of treatment period, Mean ± SEM

## IGF-I: rhIGF-I (Genentech): 10 mg/mL IGF-I, 5.84 mg/mL NaCl, 9.0 mg/mL benzyl alcohol, 2.0 mg/mL polysorbate 20, 50 mM sodium acetate, pH 5.4
[1]
  Color and Appearance Before Mixing: colorless, clear
  pH Before Mixing: 5.4
[2]; IGF-I formulation alone, FIG. 1C
  IGF-I intact and unoxidized: approximately 99%
[2]; immediately after mixing with HUMULIN R
  IGF-I precipitated: ~25%
[3]; Study 1, 6 hours after SC injection
  blood glucose levels after 6 hours: returned to basal values
[3]; Study 1, twenty minutes post-injection, SC, rhIGF-I 500 μg and/or NPH insulin 5U
  blood glucose levels: 218.3±38.1 mg %
[4]; during treatment
  average number of NPH units used per kg body weight: 0.65±0.14 units used per kg body weight
[4]; [7]
  Mean Plasma Glucose Concentrations, Pre-bedtime, Treatment: 171 ± 51 mg/dL
  Mean Plasma Glucose Concentrations, Pre-breakfast, Treatment: 176 ± 39 mg/dL
  Mean Plasma Glucose Concentrations, Pre-dinner, Treatment: 199 ± 47 mg/dL
  Mean Plasma Glucose Concentrations, Pre-lunch, Treatment: 142 ± 56 mg/dL
[4]; rhIGF-I 80 μg/kg SC q a.m. plus regular and NPH insulin, 4 weeks
  mean reduction of HbA1 during the treatment period: 1.8±1.25%
[4]; treatment phase
  average amount of regular insulin used: 0.20±0.10 insulin units used daily per kg of body weight
[5]
  free IGF-I level compared with corresponding Tanner stage placebo group: higher
[6]; day 28 of treatment
  body weight: 55 ± 17 kg
[6]; throughout the duration of the study
  biochemical, lipid, and thyroid profiles: remained within normal limits
[6]; treatment period, BG equal to or lower than 50 mg/dL
  median amount of hypoglycemic episodes: 6
